Results on three compounds are retold here after ChEMBL document CHEMBL1201862, “PubChem BioAssay data set” (2004).

Calls of active or inactive are those of the source. Some results are limits rather than exact numbers.

The IC50 is the concentration that gives 50% inhibition. A word on the AC50: it is the concentration giving half of the maximal activity seen. By Ki is commonly meant the equilibrium dissociation constant of an inhibitor or competing ligand from its target.

Experiment [1] deals with T1, Apoptotic protease-activating factor 1 (Homo sapiens, UniProt O14727).
T1 sequence (O14727 whole entry): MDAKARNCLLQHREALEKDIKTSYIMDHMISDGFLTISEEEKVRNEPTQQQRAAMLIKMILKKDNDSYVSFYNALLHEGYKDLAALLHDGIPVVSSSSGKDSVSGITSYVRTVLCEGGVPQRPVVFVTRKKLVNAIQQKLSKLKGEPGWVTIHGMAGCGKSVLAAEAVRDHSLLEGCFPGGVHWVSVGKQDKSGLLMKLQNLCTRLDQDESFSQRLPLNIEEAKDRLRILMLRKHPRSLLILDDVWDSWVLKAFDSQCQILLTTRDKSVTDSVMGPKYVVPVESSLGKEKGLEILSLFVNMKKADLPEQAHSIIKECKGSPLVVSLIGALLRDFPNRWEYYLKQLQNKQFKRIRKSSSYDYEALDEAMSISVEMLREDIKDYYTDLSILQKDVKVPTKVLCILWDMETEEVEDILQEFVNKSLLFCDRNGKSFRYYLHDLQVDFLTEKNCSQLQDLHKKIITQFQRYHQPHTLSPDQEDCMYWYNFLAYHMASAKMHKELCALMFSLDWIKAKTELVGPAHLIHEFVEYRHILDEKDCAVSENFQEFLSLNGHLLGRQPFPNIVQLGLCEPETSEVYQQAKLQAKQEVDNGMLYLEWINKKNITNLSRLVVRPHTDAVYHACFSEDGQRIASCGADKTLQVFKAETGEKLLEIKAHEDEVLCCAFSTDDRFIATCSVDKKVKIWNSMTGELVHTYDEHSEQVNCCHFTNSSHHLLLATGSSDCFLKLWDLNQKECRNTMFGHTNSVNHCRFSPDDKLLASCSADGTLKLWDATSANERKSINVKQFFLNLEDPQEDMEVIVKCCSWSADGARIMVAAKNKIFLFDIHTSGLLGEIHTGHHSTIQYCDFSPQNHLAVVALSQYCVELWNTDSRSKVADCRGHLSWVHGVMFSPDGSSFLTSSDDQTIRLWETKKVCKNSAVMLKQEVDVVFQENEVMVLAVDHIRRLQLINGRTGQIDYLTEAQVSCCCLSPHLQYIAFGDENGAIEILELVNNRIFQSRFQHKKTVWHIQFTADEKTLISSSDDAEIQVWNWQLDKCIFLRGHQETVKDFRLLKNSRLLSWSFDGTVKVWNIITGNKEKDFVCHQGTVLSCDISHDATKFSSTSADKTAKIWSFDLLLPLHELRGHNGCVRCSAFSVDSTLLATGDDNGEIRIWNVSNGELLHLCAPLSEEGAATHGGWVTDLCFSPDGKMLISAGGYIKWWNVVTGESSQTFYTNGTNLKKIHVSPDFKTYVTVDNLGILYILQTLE
It is filed as functional.

Experiment [2] addresses T2, Histone-lysine N-methyltransferase NSD2 (Homo sapiens, UniProt O96028).
T2 sequence (O96028 whole entry): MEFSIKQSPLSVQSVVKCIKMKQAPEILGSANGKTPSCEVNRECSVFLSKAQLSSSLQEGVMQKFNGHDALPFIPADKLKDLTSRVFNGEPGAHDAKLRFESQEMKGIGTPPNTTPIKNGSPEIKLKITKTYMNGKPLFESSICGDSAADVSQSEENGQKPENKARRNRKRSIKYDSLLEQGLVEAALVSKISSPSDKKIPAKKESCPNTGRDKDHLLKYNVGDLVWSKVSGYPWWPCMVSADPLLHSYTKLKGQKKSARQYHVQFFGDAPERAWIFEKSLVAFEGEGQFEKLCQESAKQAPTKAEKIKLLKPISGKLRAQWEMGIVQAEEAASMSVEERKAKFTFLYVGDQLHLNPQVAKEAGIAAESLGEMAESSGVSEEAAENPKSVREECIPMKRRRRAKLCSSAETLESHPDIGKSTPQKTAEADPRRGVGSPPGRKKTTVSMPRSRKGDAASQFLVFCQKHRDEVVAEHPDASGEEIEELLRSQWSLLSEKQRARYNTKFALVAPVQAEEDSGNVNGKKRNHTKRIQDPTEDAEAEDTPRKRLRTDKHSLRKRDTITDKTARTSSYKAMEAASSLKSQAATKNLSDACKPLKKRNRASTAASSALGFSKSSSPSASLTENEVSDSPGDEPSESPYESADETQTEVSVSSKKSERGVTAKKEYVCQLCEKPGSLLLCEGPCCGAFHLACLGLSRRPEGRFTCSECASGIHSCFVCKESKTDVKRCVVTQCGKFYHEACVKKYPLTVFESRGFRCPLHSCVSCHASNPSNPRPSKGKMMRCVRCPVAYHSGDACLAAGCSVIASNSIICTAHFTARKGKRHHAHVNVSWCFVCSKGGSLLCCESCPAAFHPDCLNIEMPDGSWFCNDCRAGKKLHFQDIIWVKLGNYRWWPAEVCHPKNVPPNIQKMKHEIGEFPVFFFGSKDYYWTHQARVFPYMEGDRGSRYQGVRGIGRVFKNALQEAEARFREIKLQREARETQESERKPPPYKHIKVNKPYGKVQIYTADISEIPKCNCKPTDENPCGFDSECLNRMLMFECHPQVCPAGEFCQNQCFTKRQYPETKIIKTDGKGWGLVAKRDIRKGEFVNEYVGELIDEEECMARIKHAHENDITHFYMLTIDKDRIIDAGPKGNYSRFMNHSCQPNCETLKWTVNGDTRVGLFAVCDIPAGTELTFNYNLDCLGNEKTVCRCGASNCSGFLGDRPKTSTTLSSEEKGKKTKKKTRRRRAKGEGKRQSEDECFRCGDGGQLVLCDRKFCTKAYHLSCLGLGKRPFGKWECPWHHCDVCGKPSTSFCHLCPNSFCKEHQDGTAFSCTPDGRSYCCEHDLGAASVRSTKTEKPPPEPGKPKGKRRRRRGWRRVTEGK
The class given is biochemical.

In experiment [3] the target is T3, Tyrosyl-DNA phosphodiesterase 2 (Homo sapiens, UniProt O95551).
T3 sequence (O95551 whole entry): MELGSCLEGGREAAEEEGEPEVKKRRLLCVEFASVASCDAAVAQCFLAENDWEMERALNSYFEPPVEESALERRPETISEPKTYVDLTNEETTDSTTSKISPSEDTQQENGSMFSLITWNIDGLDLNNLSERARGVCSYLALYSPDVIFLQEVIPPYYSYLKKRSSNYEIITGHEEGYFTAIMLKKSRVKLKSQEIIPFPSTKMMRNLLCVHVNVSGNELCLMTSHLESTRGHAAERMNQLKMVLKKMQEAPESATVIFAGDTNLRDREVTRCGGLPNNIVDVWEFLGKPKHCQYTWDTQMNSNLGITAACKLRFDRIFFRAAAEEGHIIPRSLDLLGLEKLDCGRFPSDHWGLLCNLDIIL
Nature of the experiment: human TDP2 enzyme inhibitors, dose response, biochemical, epi absorbance, IC50 (AID 743297).

Experiment [4] deals with Activated CDC42 kinase 1 (Homo sapiens, UniProt Q07912). Nature of the experiment: Navigating the Kinome. Panel member name: ACK1. The class given is functional.
Chain of Activated CDC42 kinase 1 (Q07912 whole entry, the tested form may be a part): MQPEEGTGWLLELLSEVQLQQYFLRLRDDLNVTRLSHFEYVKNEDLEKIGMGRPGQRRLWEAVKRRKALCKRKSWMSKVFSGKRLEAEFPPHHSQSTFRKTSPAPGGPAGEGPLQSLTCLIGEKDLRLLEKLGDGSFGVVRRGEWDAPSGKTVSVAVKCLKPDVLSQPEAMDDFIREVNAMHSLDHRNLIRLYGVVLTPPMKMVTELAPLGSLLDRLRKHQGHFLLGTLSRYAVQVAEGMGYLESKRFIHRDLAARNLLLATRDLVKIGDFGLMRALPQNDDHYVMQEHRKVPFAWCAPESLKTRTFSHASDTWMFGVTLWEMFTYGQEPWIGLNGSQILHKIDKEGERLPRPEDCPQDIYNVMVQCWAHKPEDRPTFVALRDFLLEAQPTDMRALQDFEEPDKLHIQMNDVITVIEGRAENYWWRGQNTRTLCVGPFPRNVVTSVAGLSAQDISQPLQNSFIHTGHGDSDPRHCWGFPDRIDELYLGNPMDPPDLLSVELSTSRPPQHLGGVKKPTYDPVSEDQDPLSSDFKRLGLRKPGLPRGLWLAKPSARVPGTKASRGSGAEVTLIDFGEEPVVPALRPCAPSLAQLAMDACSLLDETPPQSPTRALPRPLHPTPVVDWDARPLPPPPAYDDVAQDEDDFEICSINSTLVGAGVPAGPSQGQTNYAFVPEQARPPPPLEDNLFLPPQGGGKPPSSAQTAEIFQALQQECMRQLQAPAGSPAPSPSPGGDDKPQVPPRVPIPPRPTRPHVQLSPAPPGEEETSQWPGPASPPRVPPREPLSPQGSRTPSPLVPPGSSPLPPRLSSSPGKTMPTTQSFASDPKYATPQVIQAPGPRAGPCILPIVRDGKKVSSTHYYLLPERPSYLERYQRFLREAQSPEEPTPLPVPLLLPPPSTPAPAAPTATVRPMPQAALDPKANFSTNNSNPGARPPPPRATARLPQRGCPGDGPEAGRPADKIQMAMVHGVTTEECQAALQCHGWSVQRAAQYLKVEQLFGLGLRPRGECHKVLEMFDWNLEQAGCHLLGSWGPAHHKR
Experiment [5] has as its target LIM domain kinase 1 (Homo sapiens, UniProt P53667). Kind of experiment: Navigating the Kinome. Panel member name: LIMK1. It is filed as functional.

Chain of LIM domain kinase 1 (P53667 whole entry, the tested form may be a part): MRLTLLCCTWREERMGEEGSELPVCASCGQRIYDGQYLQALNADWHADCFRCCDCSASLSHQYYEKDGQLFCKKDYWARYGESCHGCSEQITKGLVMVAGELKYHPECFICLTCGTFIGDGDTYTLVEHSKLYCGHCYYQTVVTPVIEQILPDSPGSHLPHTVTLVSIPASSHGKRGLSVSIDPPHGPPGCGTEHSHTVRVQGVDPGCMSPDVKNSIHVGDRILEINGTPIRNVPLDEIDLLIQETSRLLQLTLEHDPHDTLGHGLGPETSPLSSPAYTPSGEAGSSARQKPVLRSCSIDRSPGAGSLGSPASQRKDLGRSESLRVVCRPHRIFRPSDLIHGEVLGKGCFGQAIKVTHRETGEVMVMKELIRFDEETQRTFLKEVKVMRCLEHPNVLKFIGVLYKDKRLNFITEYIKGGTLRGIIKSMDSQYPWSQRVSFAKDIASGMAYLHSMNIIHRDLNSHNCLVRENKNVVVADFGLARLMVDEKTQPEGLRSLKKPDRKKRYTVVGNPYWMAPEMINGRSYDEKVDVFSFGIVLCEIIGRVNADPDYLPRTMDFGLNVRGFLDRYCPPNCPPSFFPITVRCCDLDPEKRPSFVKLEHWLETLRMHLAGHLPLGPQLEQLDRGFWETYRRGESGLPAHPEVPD

As for `CC(=O)N(C1=C(Cl)C(=O)c2ccccc2C1=O)c1ccc(C(=O)O)cc1`, the IC50 in experiment [1] is 2.92 µM (active); in experiment [3], 9.4 µM (active). In experiment [2], the AC50 was 3.29 µM (active).

As for `CC1(C)C=C2C(=NN(c3ccccc3)C(N)=C2C#N)CO1`, the figures for the IC50 in experiment [1] and in experiment [3] were 1.38 µM (active) and 1.27 µM (active), respectively. Also, in experiment [2], the AC50 was 5.67 µM (active).

For `Cc1ccc(-c2cc3nc(Br)cnc3[nH]2)cc1`, the results for the Ki in experiment [4] and in experiment [5] were > 3.98 µM (inactive) and > 3.16 µM (inactive), respectively.
